These results are taken from publication PMC11855827, “High-Throughput Screening of Five Compound Libraries for Anthelmintic Activity and Toxicity Leads to the Discovery of Two Flavonoid Compounds” (International Journal of Molecular Sciences, 2025).

The experiment deals with C. elegans. Description: microbe, parasite or virus in culture. The note with it: Caenorhabditis elegans.
Setting [1] is: 0 h, read-out: Percentage of motility inhibition 0 h, Table S2, C. elegans SS assay, 110 μM, 0 h, averages of 4 data points.
Where [2] appears, read: 24 h, read-out: Percentage of motility inhibition 24 h, Table S2, C. elegans SS assay, 110 μM, 24 h, averages of 4 data points.
Where [3] appears, read: 0 h, read-out: Percentage of motility inhibition 0 h.
Setting [4] is: 24 h, read-out: Percentage of motility inhibition 24 h.

SMILES strings stand for the structures. Like-named read-outs stand apart in the source and are kept apart here.

What is called inhibition is the share of the control response that was lost under treatment. Regarding `CC(=O)c1ccc[nH]1` [2‐Acetylpyrrole], the inhibition at 110 µM came out at 26% under setting [1] and 18% under setting [2].

As for `O=c1[nH]c2ccccc2o1` [2‐Benzoxazolinone], the inhibition at 110 µM turned out to be 24% under setting [1] and 6% under setting [2].

As for `c1ccc2c(Cc3c[nH]c4ccccc34)c[nH]c2c1` [3,3'‐Diindolylmethane], the inhibition at 110 µM is, setting by setting: under setting [1], 0%; under setting [2], 7%.

`Cc1ccc2[nH]c3ccccc3c2c1` [3‐Methylcarbazole]: the inhibition at 110 µM by setting is: under setting [1], 0%; under setting [2], 29%.

Turning to `COc1c(-c2ccc(O)c(O)c2)oc2cc(O)cc(O)c2c1=O` [3‐O‐Methylquercetin], the inhibition at 110 µM reads like this: under setting [1], 3%; under setting [2], 16%.

Regarding `O=C(/C=C/c1ccccc1)c1ccc(O)cc1` [4'‐Hydroxychalcone], the inhibition at 110 µM by setting is: under setting [1], 39%; under setting [2], 15%.

In the case of `COc1ccc(C(=O)/C=C/c2ccccc2)cc1` [4'‐Methoxychalcone], the inhibition at 110 µM is 0% under setting [3] and 5% under setting [4].

With `COc1c(OC)c2nccc3c4ccccc4n(c1=O)c23` [4,5‐Dimethoxycanthin‐6‐one], the inhibition at 110 µM by setting is: under setting [1], 0%; under setting [2], 22%.

As to `Cc1cc(=O)oc2cc(O)ccc12` [4-Methylumbelliferone], the inhibition at 110 µM reads like this: under setting [1], 4%; under setting [2], 3%.

Take `O=C(/C=C/c1ccc(O)cc1)c1ccccc1` [4‐Hydroxychalcone]: the inhibition at 110 µM reads like this: under setting [1], 0%; under setting [2], 1%.

Regarding `N[C@@H](Cc1c[nH]c2ccc(O)cc12)C(=O)O` [5-Hydroxytryptophan], the inhibition at 110 µM by setting is: under setting [1], 28%; under setting [2], 12%.

As for `O=c1cc(-c2ccccc2)oc2cccc(O)c12` [5‐Hydroxyflavone], the inhibition at 110 µM runs as follows: under setting [1], 12%; under setting [2], 21%.

For the compound `Oc1ccc2[nH]ccc2c1` [5‐Hydroxyindole], the inhibition at 110 µM turned out to be 28% under setting [1] and 9% under setting [2].

`O=c1cc(-c2ccccc2)oc2ccc(O)cc12` [6‐Hydroxyflavone]: the inhibition at 110 µM by setting is: under setting [1], 14%; under setting [2], 2%.

As to `O=c1cc(-c2ccccc2)oc2cc(O)ccc12` [7‐Hydroxyflavone], the inhibition at 110 µM came to 1% under setting [1] and 0% under setting [2].

In the case of `CC(C)=CCc1c(O)c(CC=C(C)C)c2oc3c(O)cccc3c(=O)c2c1O` [8‐Deoxygartanin], the inhibition at 110 µM under setting [1] turned out to be 14% and the inhibition at 110 µM under setting [2] came out at 0%.

As to `Nc1nc2c(nc(O)n2[C@@H]2O[C@H](CO)[C@@H](O)[C@H]2O)c(=O)[nH]1` [8‐Hydroxyguanosine], the inhibition at 110 µM is, setting by setting: under setting [1], 14%; under setting [2], 4%.

For the compound `CC[C@@]1(O)C(=O)OCc2c1cc1n(c2=O)Cc2cc3c(N)cccc3nc2-1` [9‐Aminocamptothecin], the inhibition at 110 µM amounted to 0% under setting [1] and 2% under setting [2].

As for `C=CCCCCCCCCC(=O)O` [10‐Undecenoic acid], the inhibition at 110 µM reads like this: under setting [1], 60%; under setting [2], 67%.

As to `C=C1CC[C@@H]2[C@](C)(CO)[C@H](O)CC[C@@]2(C)[C@@H]1CCC1=CCOC1=O` [14-Deoxyandrographolide], the inhibition at 110 µM by setting is: under setting [1], 1%; under setting [2], 28%.

On to `CC(C)=CCC[C@@H](C)CC=O` [(R)-(+)-Citronellal], for which the inhibition at 110 µM is, setting by setting: under setting [1], 0%; under setting [2], 8%.

With `CC[C@@]1(O)C(=O)OCc2c1cc1n(c2=O)Cc2cc3cc(O)ccc3nc2-1` [(S)‐10‐Hydroxycamptothecin], the inhibition at 110 µM reads like this: under setting [1], 0%; under setting [2], 0%.

As for `Oc1cc(O)c2c(c1)O[C@@H](c1ccc(O)c(O)c1)[C@H](O)C2` [(‐)‐Catechin], the inhibition at 110 µM was 8% under setting [1] and 9% under setting [2].

Consider `Oc1cc(O)c2c(c1)O[C@H](c1ccc(O)c(O)c1)[C@H](O)C2` [(‐)‐Epicatechin], for which the inhibition at 110 µM was found to be 1% under setting [1] and 23% under setting [2].

For `Oc1cc(O)c2c(c1)O[C@@H](c1cc(O)c(O)c(O)c1)[C@H](O)C2` [(‐)‐Gallocatechin], the inhibition at 110 µM was 43% under setting [3] and 5% under setting [4].

In the case of `C/C=C1\[C@H]2C=C(C)C[C@]1(N)c1ccc(=O)[nH]c1C2` [(‐)‐Huperzine A], the inhibition at 110 µM turned out to be 0% under setting [1] and 4% under setting [2].

In the case of `O=C1C=C2C=C[C@@H]3C[C@@]2(O1)[C@H]1CCCCN31` [(‐)‐Securinine], the inhibition at 110 µM is, setting by setting: under setting [1], 0%; under setting [2], 12%.

In the case of `COc1c(-c2ccc3cc(NS(C)(=O)=O)ccc3c2)cc(-n2ccc(=O)[nH]c2=O)cc1C(C)(C)C` [ABT‐333], the inhibition at 110 µM is, setting by setting: under setting [1], 40%; under setting [2], 0%.

On to `OB1OCc2cc(F)ccc21` [AN‐2690], for which the inhibition at 110 µM is, setting by setting: under setting [1], 0%; under setting [2], 12%.

With `Nc1nc(NC2CC2)c2ncn([C@H]3C=C[C@@H](CO)C3)c2n1` [Abacavir], the inhibition at 110 µM amounted to 3% under setting [1] and 2% under setting [2].

With `CC1=CC(=O)CC(C)(C)[C@@]1(O)/C=C/C(C)=C\C(=O)O` [Abscisic acid], the inhibition at 110 µM under setting [1] was found to be 0% and the inhibition at 110 µM under setting [2] was found to be 11%.

Turning to `COc1ccc(-c2cc(=O)c3c(O)cc(O)cc3o2)cc1` [Acacetin], the inhibition at 110 µM stood at 9% under setting [1] and 2% under setting [2].

On to `Cn1c(=O)c2c(ncn2CC(=O)O)n(C)c1=O` [Acefylline], for which the inhibition at 110 µM worked out at 0% under setting [1] and 1% under setting [2].

`CC(=O)OCC1=CO[C@@H](OC(=O)CC(C)C)[C@H]2C1=C[C@H](OC(=O)CC(C)(C)OC(C)=O)[C@]21CO1` [Acevaltrate]: the inhibition at 110 µM runs as follows: under setting [3], 7%; under setting [4], 21%.

Turning to `CCN1C[C@]2(COC)[C@H](O)C[C@H](OC)[C@]34C1[C@H]([C@H](OC)[C@H]23)[C@]1(O)[C@H]2[C@@H](O)[C@](O)(C[C@H]24)[C@@H](OC)[C@@H]1O` [Aconine], the inhibition at 110 µM worked out at 10% under setting [1] and 0% under setting [2].

In the case of `Nc1nc2c(ncn2COCCO)c(=O)[nH]1` [Acyclovir], the inhibition at 110 µM worked out at 17% under setting [1] and 12% under setting [2].

Regarding `CC(C)(C)C(=O)OCOP(=O)(COCCn1cnc2c(N)ncnc21)OCOC(=O)C(C)(C)C` [Adefovir dipivoxil], the inhibition at 110 µM was found to be 28% under setting [1] and 14% under setting [2].

For `Nc1ncnc2[nH]cnc12` [Adenine], the inhibition at 110 µM by setting is: under setting [3], 0%; under setting [4], 3%.

In the case of `Nc1ncnc2c1ncn2[C@@H]1O[C@H](CO)[C@@H](O)[C@H]1O` [Adenosine], the inhibition at 110 µM is, setting by setting: under setting [1], 0%; under setting [2], 9%.

In the case of `O=C(OCC1=C[C@@H](O)[C@@H]2C=CO[C@@H](O[C@@H]3O[C@H](CO)[C@@H](O)[C@H](O)[C@H]3O)[C@H]12)c1ccc(O)cc1` [Agnuside], the inhibition at 110 µM was found to be 2% under setting [1] and 15% under setting [2].

`CCCSc1ccc2nc(NC(=O)OC)[nH]c2c1` [Albendazole]: the inhibition at 110 µM under setting [3] worked out at 17% and the inhibition at 110 µM under setting [4] is 6%.

Regarding `CC(C)C1=C[C@H]2[C@@H](CC[C@]2(C)O)[C@](C)(O)CC1` [Alismoxide], the inhibition at 110 µM under setting [1] stood at 2% and the inhibition at 110 µM under setting [2] worked out at 0%.

For the compound `C[C@H](C[C@H](O)[C@@H](O)C(C)(C)O)C1=C2C[C@H](O)[C@H]3[C@@]4(C)CCC(=O)C(C)(C)[C@@H]4CC[C@]3(C)[C@@]2(C)CC1` [Alisol A], the inhibition at 110 µM was found to be 3% under setting [1] and 2% under setting [2].

On to `C[C@H](C[C@H](O)[C@H]1OC1(C)C)C1=C2C[C@H](O)[C@H]3[C@@]4(C)CCC(=O)C(C)(C)[C@@H]4CC[C@]3(C)[C@@]2(C)CC1` [Alisol B], for which the inhibition at 110 µM was determined as 3% under setting [3] and 10% under setting [4].

`NC(=O)NC1NC(=O)NC1=O` (stereo not shown) [Allantoin]: the inhibition at 110 µM is 0% under setting [1] and 13% under setting [2].

As for `COc1ccc2c(c1OC)CN(C)CCc1cc3c(cc1C(=O)C2)OCO3` [Allocryptopine], the inhibition at 110 µM runs as follows: under setting [1], 11%; under setting [2], 18%.

As for `O=c1cc(-c2ccc(O)c(-c3c(O)cc(O)c4c(=O)cc(-c5ccc(O)cc5)oc34)c2)oc2cc(O)cc(O)c12` [Amentoflavone], the inhibition at 110 µM was found to be 0% under setting [1] and 0% under setting [2].

As to `C[C@@H]1[C@H](O)[C@@H](C)/C=C/C=C/C=C/C=C/C=C/C=C/C=C/[C@H](O[C@@H]2O[C@H](C)[C@@H](O)[C@H](N)[C@@H]2O)C[C@@H]2O[C@](O)(C[C@@H](O)C[C@@H](O)[C@H](O)CC[C@@H](O)C[C@@H](O)CC(=O)O[C@H]1C)C[C@H](O)[C@H]2C(=O)O` [Amphotericin B], the inhibition at 110 µM by setting is: under setting [1], 2%; under setting [2], 29%.

In the case of `CC(C)CN(C[C@@H](O)[C@H](Cc1ccccc1)NC(=O)O[C@H]1CCOC1)S(=O)(=O)c1ccc(N)cc1` [Amprenavir], the inhibition at 110 µM came to 41% under setting [1] and 34% under setting [2].

With `N#C[C@H](O[C@@H]1O[C@H](CO[C@@H]2O[C@H](CO)[C@@H](O)[C@H](O)[C@H]2O)[C@@H](O)[C@H](O)[C@H]1O)c1ccccc1` [Amygdalin], the inhibition at 110 µM under setting [1] was determined as 13% and the inhibition at 110 µM under setting [2] is 0%.

In the case of `c1cncc([C@@H]2CCCCN2)c1` [Anabasine], the inhibition at 110 µM was 0% under setting [1] and 0% under setting [2].

Take `O=c1cccc2n1C[C@H]1C[C@@H]2CN2CCCC[C@H]12` [Anagyrine]: the inhibition at 110 µM reads like this: under setting [1], 14%; under setting [2], 6%.

On to `C=C1CC[C@@H]2[C@](C)(CO)CCC[C@@]2(C)[C@@H]1CCC1=CCOC1=O` [Andrograpanin], for which the inhibition at 110 µM is 3% under setting [1] and 20% under setting [2].
